# Measurements published in PMC11946679 (Toxics, 2025).
# Marks after values point to notes of the source that are not given here.
# What was measured:
# [1] = system: human peripheral blood lymphocytes; assay type: cell-based; conditions: alone, 3 h, IRI 9.0 mg/L, bleomycin 15 mg/L; for Total No. of Cells in Apoptosis / Total No. of Nonviable Cells: scored along with 4000 binucleated cells
# Description: While screening microscope preparations to determine trends in the levels of the main CBMN assay descriptors, nonviable cells were also simultaneously counted on the same slides. Their discrimination was based on the specific morphological features typical for apoptosis or necrosis. It is well known that the biological significance of these phenomena differs deeply, and that the determination of the predominant type of cell death represents a very important issue in each experimental setting.
# For each experimental group, we also calculated the ratio between the recorded number of nonviable cells and the cells in apoptosis (Table 5). According to reference, a ratio ≤ 1 means a prevalence of apoptotic events that induce cell death, while a ratio > 1 indicates the acute toxicity of the tested substance that promotes necrosis.
# [2] = system: human peripheral blood lymphocytes; experiment: CBMN cytome assay: lymphocyte proliferation (M1-M4, CBPI, RI); assay type: cell-based; conditions: alone, 3 h; IRI 9.0 mg/L, bleomycin 15 mg/L
# Experimental: On the same slides, parameters of cell proliferation and cytotoxicity were also evaluated, in line with the OECD protocol.
# [3] = system: human peripheral blood lymphocytes; experiment: CBMN cytome assay: micronuclei, nuclear buds, nucleoplasmic bridges; conditions: alone, 3 h; IRI 9.0 mg/L, bleomycin 15 mg/L
# Experimental: The CBMN assay was performed in line with standard protocols [8, 23].
# To collect the blood sample, lithium heparin-coated tubes were used (BD vacutainer® with LH 170 I.U., Becton Dickinson: BD-Plymouth PL6 78P, UK).
# There were 15 experimental groups altogether. The same experimental design was applied in two independent trials, each of which had two replicate cultures per experimental group; therefore, four replicate cultures for every single experimental group were established.
# To induce cell division prior to exposure to the test chemicals, lymphocytes were stimulated with the mitogen phytohemagglutinin (PHA). Cultures were kept in a humidified atmosphere of 5% CO2 at 37 °C.
# They started 41 h after PHA stimulation and lasted for 3 h at 37 °C.
# Upon completion of exposure, lymphocyte cultures were centrifuged at 100× g. […] This procedure was timed for the 44th hour of lymphocyte cultivation, which represents a critical point for adding of cytoB to hinder cytokinesis and obtain binucleated cells. All treated and control cultures were further maintained at 37 °C until the end of the 72nd hour of cultivation, according to the above-mentioned standard protocols.
# The first step in the preparation of microscopic slides was harvesting of cells by centrifugation (100× g), followed by treatment with 0.075 mol/L potassium chloride and succeeded by centrifugation. The sediments of cells were repeatedly fixed with methanol/acetic acid (3:1 v/v) followed by centrifugation. The final lymphocyte suspension was pipetted onto clean microscope slides. For staining, 5% aqueous solution of Giemsa dye was used. Slides were screened using a light microscope at 1000× magnification. For morphological discrimination of micronuclei (MNi), nuclear buds (NBs), nucleoplasmic bridges (NPBs) and cells in apoptosis or necrosis, the criteria by Fenech et al. [25] and Fenech [23] were applied. To determine their frequencies, per experimental point, a total of 4 × 1000 binucleated (BN) cells were scored.
# This value was first used to estimate the number of MNi required to reach a decrease and an increase considered significant at a 5% significance level.
compound,measurement,setting,value
"CCc1c2c(nc3ccc(OC(=O)N4CCC(N5CCCCC5)CC4)cc13)-c1cc3c(c(=O)n1C2)COC(=O)[C@]3(O)CC [Irinotecan, reference compound]",Total No. of Cells in Apoptosis,[1],42
same,Total No. of Nonviable Cells,[1],76
same,% of Cells with 1 to 4 Nuclei M1,[2],43.1 ^↑ %
same,% of Cells with 1 to 4 Nuclei M2,[2],52.9 ^↓ %
same,% of Cells with 1 to 4 Nuclei M3,[2],2.0 ^↓ %
same,% of Cells with 1 to 4 Nuclei M4,[2],2.0 ^↓ %
same,CBPI,[2],1.609
Bleomycin [reference compound],Ratio (nonviable cells and cells in apoptosis),[1],0.6
same,Total No. of Cells in Apoptosis,[1],59
same,Total No. of Nonviable Cells,[1],100
same,% of Cells with 1 to 4 Nuclei M1,[2],45.5 ^↑ %
same,% of Cells with 1 to 4 Nuclei M2,[2],46.1 ^↓ %
same,% of Cells with 1 to 4 Nuclei M3,[2],4.2%
same,% of Cells with 1 to 4 Nuclei M4,[2],4.2 ^↓ %
same,CBPI,[2],1.629
same,Replication Index (%),[2],64.0%
same,Distribution of BNMN Cells with 1 MN,[3],65 *
same,Distribution of BNMN Cells with 2 MN,[3],"11 iri, g10+iri"
same,Distribution of BNMN Cells with 3 MN,[3],2
same,Distribution of BNMN Cells with 4 MN,[3],1
same,Distribution of BNNB Cells with 1 NB,[3],49 *
same,Distribution of BNNB Cells with 2 NB,[3],"4 c,p1,p5,p10,g1, g5,g10, p1+iri, p5+iri, p10+iri, g5+iri, g10+iri"
same,Distribution of BNNPB Cells with 1 NPB,[3],"7 c,p1,p5,p10,g1, g5,g10, p1+iri, p5+iri, p10+iri, g1+iri, g5+iri, g10+iri"
same,Distribution of BNNPB Cells with 2 NPB,[3],0
same,Micronuclei (MNi) Mean (BNMN)1000 ± SD,[3],19.75 ± 3.77
same,Micronuclei (MNi) Mean (MNi)1000 ± SD,[3],24.25 ± 6.24
same,Micronuclei (MNi) Total (BNMN)4000,[3],79 *
same,Micronuclei (MNi) Total (MNi)4000,[3],97 *
same,Nuclear Buds (NBs) Mean (BNNB)1000 ± SD,[3],13.25 ± 0.96
same,Nuclear Buds (NBs) Mean (NBs)1000 ± SD,[3],14.25 ± 0.50
same,Nuclear Buds (NBs) Total (BNNB)4000,[3],53 *
same,Nuclear Buds (NBs) Total (NBs)4000,[3],57 *
same,Nucleoplasmic Bridges (NPBs) Mean (BNNPB)1000 ± SD,[3],"1.75 ± 1.26 c,p1,p5,p10, g1,g5,g10, p1+iri, p5+iri, p10+iri, g1+iri, g5+iri, g10+iri"
same,Nucleoplasmic Bridges (NPBs) Mean (NPBs)1000 ± SD,[3],"1.75 ± 1.26 c,p1,p5,p10, g1,g5,g10, p1+iri, p5+iri, p10+iri, g1+iri, g5+iri, g10+iri"
same,Nucleoplasmic Bridges (NPBs) Total (BNNPB)4000,[3],"7 c,p1,p5, p10,g1,g5,g10,p1+iri,p5+iri, p10+iri, g1+iri, g5+iri, g10+iri"
same,Nucleoplasmic Bridges (NPBs) Total (NPBs)4000,[3],"7 c,p1,p5,p10,g1,g5,g10,p1+iri, p5+iri, p10+iri, g1+iri, g5+iri, g10+iri"
